The assay has as its target T1, Cholesteryl ester transfer protein (Homo sapiens, UniProt P11597).
T1 sequence (P11597 whole entry): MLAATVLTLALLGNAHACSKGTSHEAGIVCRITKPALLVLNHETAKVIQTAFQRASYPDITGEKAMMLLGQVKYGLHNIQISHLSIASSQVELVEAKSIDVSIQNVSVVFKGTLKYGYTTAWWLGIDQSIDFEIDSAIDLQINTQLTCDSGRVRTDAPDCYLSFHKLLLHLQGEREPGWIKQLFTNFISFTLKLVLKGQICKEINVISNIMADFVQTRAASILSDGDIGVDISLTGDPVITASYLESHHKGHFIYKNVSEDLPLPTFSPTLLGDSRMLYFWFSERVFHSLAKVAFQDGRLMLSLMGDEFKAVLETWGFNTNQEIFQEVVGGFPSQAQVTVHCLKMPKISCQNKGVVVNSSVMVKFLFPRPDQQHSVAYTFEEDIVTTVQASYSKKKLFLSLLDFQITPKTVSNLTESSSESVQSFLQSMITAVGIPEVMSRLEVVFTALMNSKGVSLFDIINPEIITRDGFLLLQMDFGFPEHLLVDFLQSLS
The experiment in a line: CETP Inhibition Assay: A recombinant human CETP protein (manufactured by Roar Biomedical Inc.; 4.5 ng), the acceptor lipoprotein described in (2) above (32.5 μg) and 5,5'-dithio-bis-(2-nitrobenzoic acid) (7 mM, 15 μl) were taken in a 96 well plate and the total amount of the mixture was adjusted to 48.5 μl with the PBS solution. The test compound [DMSO solution (concentration: 0.15, 0.5, 1.5, 5, 15, 50, 150 and 500 μM); 1.5 μl] was added to each well and the mixture was incubated in a thermostatic bath at 37 °C. for 60 minutes. The reconstituted HDL (50 μl) described in (1) above was added to each well and the mixture was reacted in a thermostatic bath at 37 °C. for 60 minutes. The 96 well plate was moved onto ice and a precipitation reagent [a mixed solution of magnesium chloride (60 mM) and 0.1% dextran sulfate[1/1(v/v)]; 15 μl] was added to each well, and then the mixture was allowed to stand on ice for 15 minutes. The reaction solution (80 μl) in each well was moved to a filter plate and centrifuged at 1500 rpm for 1 minute, and the filtrate which passed through the filter was designated as the HDL fraction and the radioactivity thereof was measured with a scintillation counter.

The structures appear in SMILES notation. “And” between values parts separate entries of the source, which are not always exact repeats. Equal entries are not always repeated.

`CC(C)(O)CCOc1cnc(N2CCC(c3nc4c(c(C5CCC(F)(F)CC5)c3[C@@H](F)c3ccc(C(F)(F)F)cc3)[C@@H](O)CC(C)(C)C4)CC2)nc1`: the IC50 is 17.8 nM and 21.3 nM.

The record behind these values is ChEMBL document CHEMBL3886662, “Acid addition salt of substituted pyridine compound” (2016).
